{"source": "patent US20100130469A1", "about": "“2, 6-NAPHTHRIDINE DERIVATIVES” (priority 2007, published 2010)", "key": {"PKCθ": {"molecular_target": "PKCθ (Homo sapiens, UniProt Q04759)", "sequence (Q04759 whole entry)": "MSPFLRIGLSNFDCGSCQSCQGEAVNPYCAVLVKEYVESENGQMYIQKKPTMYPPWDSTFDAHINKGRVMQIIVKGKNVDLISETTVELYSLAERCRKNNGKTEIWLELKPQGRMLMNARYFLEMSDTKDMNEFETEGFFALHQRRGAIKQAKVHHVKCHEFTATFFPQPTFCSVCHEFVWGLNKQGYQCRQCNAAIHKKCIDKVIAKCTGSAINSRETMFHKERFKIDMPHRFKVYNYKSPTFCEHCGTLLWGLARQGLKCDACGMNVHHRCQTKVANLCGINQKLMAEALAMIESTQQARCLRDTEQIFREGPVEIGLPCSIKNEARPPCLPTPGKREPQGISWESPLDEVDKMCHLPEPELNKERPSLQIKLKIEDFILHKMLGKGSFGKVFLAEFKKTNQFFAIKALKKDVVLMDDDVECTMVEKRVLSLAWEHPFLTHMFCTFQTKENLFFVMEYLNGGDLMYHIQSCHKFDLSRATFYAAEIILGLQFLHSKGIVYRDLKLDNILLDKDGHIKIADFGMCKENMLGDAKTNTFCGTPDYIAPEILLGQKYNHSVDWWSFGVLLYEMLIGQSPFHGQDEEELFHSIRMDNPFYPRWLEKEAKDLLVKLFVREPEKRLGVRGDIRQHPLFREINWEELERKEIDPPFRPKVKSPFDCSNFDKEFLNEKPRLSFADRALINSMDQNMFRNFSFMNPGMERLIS", "experiment": "Protein Kinase C θ assay", "format": "biochemical", "conditions": "ratio of IC50 values", "procedure": "(§1) The compounds of the invention are tested for their activity on different PKC isotypes according to the following method. Assay is performed in a white with clear bottom 384-well microtiterplate with non-binding surface. The reaction mixture (25 μl) contains 1.5 μM of a tridecapeptide acceptor substrate that mimics the pseudo substrate sequence of PKC a with the Ala→Ser replacement, 10 μM ^33P-ATP, 10 mM Mg(NO3)2, 0.2 mM CaCl2, PKC at a protein concentration varying from 25 to 400 ng/ml (depending on the isotype used), lipid vesicles (containing 30 mol % phosphatidylserine, 5 mol % DAG and 65 mol % phosphatidylcholine) at a final lipid concentration of 0.5 mM, in 20 mM Tris-HCl buffer pH 7.4+0.1% BSA. Incubation is performed for 60 min at room temperature.\nHuman recombinant PKCθ is used under the assay conditions as described above."}, "PKCα": {"molecular_target": "T1, PKCα (Homo sapiens, UniProt P17252)", "T1 construct": "purchased Oxford Biomedical Research", "experiment": "Protein Kinase Cα assay", "format": "biochemical", "conditions": "ratio of IC50 values", "procedure": "as §1\nHuman recombinant PKCα was obtained from Oxford Biomedical Research and is used under the assay conditions as described under Section A.1 above."}, "PKCβ1": {"molecular_target": "T2, PKCβ1 (Homo sapiens, UniProt P05771)", "T2 construct": "purchased Oxford Biomedical Research", "T2 sequence (P05771 whole entry)": "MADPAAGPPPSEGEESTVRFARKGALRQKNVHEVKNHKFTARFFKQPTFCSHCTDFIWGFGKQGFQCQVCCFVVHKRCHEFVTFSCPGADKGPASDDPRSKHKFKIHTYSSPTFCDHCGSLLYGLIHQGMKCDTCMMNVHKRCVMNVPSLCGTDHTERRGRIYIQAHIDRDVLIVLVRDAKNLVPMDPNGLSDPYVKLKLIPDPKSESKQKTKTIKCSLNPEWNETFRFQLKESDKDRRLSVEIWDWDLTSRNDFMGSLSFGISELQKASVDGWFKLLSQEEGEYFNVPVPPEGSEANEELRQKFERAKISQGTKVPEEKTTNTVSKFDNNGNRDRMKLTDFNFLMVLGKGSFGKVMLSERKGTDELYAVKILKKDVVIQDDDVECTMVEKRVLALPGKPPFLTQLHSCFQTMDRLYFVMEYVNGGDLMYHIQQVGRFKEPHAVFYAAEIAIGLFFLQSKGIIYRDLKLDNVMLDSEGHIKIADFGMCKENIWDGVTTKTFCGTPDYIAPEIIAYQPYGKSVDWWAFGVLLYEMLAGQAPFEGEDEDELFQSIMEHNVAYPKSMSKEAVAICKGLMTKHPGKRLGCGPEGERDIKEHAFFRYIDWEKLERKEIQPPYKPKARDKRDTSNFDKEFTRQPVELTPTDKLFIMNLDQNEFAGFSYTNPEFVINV", "experiment": "Protein Kinase Cβ1 assay", "format": "biochemical", "conditions": "ratio of IC50 values", "procedure": "as §1\nHuman recombinant PKCβ1 was obtained from Oxford Biomedical Research and is used under the assay conditions as described under Section A.1 above."}, "PKCδ": {"molecular_target": "T3, PKCδ (Homo sapiens, UniProt Q05655)", "T3 construct": "purchased Oxford Biomedical Research", "T3 sequence (Q05655 whole entry)": "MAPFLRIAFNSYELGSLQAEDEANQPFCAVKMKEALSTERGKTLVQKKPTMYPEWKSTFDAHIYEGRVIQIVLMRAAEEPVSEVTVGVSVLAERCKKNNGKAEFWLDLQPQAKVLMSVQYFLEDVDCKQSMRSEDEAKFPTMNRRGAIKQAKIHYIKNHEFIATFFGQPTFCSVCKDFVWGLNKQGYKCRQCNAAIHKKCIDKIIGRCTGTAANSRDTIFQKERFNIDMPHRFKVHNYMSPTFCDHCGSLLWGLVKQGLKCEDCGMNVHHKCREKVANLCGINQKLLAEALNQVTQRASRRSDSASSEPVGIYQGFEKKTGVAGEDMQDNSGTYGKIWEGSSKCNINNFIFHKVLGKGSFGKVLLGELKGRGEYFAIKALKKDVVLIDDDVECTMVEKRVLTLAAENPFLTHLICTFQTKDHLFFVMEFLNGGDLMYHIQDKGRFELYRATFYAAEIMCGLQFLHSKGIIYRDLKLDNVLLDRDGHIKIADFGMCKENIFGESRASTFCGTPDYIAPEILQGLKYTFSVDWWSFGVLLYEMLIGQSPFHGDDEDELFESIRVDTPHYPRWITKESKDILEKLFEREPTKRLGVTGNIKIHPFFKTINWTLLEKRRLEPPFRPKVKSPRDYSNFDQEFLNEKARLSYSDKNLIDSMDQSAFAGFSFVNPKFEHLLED", "experiment": "Protein Kinase Cδ assay", "format": "biochemical", "conditions": "ratio of IC50 values", "procedure": "as §1\nHuman recombinant PKC was obtained from Oxford Biomedical Research and is used under the assay conditions as described under Section A.1 above."}, "PKCε": {"molecular_target": "T4, PKCε (Homo sapiens, UniProt Q02156)", "T4 construct": "purchased Oxford Biomedical Research", "T4 sequence (Q02156 1-737)": "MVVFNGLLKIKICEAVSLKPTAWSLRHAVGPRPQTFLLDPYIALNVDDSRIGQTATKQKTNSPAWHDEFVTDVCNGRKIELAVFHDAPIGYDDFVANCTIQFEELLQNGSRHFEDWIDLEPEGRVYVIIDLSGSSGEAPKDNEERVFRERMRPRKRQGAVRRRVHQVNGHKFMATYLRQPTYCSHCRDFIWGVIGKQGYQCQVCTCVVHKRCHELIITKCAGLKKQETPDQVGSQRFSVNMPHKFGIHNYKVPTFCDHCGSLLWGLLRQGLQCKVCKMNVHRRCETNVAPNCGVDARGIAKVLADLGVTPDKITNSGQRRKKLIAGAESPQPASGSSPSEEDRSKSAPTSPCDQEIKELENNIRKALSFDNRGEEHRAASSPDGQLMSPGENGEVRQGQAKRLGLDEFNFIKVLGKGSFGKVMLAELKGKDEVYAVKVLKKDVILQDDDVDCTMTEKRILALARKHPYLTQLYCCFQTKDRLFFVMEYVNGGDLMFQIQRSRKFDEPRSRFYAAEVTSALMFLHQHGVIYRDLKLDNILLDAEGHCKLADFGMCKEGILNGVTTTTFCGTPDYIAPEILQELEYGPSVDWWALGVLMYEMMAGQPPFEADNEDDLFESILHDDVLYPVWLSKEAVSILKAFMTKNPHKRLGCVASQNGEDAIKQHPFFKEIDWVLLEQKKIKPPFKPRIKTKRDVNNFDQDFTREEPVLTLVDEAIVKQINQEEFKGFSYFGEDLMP", "experiment": "Protein Kinase Cε assay", "format": "biochemical", "conditions": "ratio of IC50 values", "procedure": "as §1\nHuman recombinant PKCη was obtained from Oxford Biomedical Research and is used under the assay conditions as described under Section A.1 above."}, "[1]": {"tested_on": "Bone marrow cells from CBA mice", "experiment": "Bone Marrow Cell Proliferation (BM) assay", "format": "cell-based", "conditions": "mouse cells", "procedure": "Bone marrow cells from CBA mice (2.5×10^4 cells per well in flat bottom tissue culture microtiter plates) are incubated in 100 μL RPMI medium containing 10% FCS, 100 U/mL penicillin, 100 μg/mL streptomycin (Gibco BRL, Baselm Switzerland), 50 μM 2-mercaptoethanol (Fluka, Buchs, Switzerland), WEHI-3 conditioned medium (7.5% v/v) and L929 conditioned medium (3% v/v) as a source of growth factors and serially diluted compounds. Seven three-fold dilution steps in duplicates per test compounds are performed. After four days of incubation 1 μCi ^3H-thymidine is added. Cells are harvested after an additional five-hour incubation period, and incorporated ^3H-thymidine is determined according to standard procedures. Conditioned media are prepared as follows. WEHI-3 cells (ATCC TIB68) and L929 cells (ATCC CCL 1) are grown in RPMI medium until confluence for 4 days and one week, respectively. Cells are harvested, resuspended in the same culture flasks in medium C containing 1% FCS (Schreier and Tess 1981) for WEHI-3 cells and RPMI medium for L929 cells and incubated for 2 days (WEHI-3) or one week (L929). The supernatant is collected, filtered through 0.2 μm and stored in aliquots at −80° C. Cultures without test compounds and without WEHI-3 and L929 supernatants are used as low control values. Low control values are substracted from all values. […]"}, "PKCη": {"molecular_target": "T5, PKCη (Homo sapiens, UniProt P24723)", "T5 construct": "purchased PanVera", "T5 sequence (P24723 whole entry)": "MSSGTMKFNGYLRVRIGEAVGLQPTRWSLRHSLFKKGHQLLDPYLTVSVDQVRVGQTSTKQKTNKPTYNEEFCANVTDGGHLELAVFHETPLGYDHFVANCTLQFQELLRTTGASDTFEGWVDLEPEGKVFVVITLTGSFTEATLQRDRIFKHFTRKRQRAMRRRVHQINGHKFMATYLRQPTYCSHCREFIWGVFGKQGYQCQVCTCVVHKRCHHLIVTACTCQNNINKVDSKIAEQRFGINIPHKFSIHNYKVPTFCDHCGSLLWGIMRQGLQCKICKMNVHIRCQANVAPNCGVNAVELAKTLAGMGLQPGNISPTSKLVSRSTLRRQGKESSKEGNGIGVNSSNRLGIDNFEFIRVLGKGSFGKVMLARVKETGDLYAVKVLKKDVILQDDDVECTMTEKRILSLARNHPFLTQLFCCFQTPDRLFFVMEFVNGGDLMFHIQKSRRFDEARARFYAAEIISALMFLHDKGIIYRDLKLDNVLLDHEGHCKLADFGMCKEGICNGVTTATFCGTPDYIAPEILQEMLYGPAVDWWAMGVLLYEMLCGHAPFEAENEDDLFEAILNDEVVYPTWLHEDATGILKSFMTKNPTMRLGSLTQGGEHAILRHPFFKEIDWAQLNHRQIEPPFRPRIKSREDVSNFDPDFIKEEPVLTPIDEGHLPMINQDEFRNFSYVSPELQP", "experiment": "Protein Kinase Cη assay", "format": "biochemical", "conditions": "human recombinant PKCη", "procedure": "as §1\nHuman recombinant PKCη was obtained from PanVera and is used under the assay conditions as described under Section A.1 above."}}}
{"smiles": "C[C@H](N)CNc1nc(-c2ccncc2)cc2cnccc12", "note": "[Example 71a, (S)—N*1*-(3-Pyridin-4-yl-[2,6]naphthyridin-1-yl)-propane-1,2-diamine]", "values": [{"measurement": "θ/η: ratio of the IC50 value for PKCθ to the IC50 value for PKCη", "setting": "PKCθ", "value": 30}, {"measurement": "α/η: ratio of the IC50 value for PKCα to the IC50 value for PKCη", "setting": "PKCα", "value": 506}, {"measurement": "β/η: ratio of the IC50 value for PKC β to the IC50 value for PKCη", "setting": "PKCβ1", "value": 196}, {"measurement": "δ/η: ratio of the IC50 value for PKCδ to the IC50 value for PKCη", "setting": "PKCδ", "value": 4}, {"measurement": "ε/η: ratio of the IC50 value for PKCε to the IC50 value for PKCη", "setting": "PKCε", "value": 3}, {"measurement": "BM/MLR: ratio of IC50 values of BM assay and MLR assay", "setting": "[1]", "value": 30}]}
{"smiles": "CC(C)(N)CNc1cc(-c2ccncc2)cc2cnccc12", "note": "[Example 83, 2-Methyl-N*1*-(7-pyridin-4-yl-isoquinolin-5-yl)-propane-1,2-diamine]", "values": [{"measurement": "IC50", "setting": "PKCη", "value": 54, "unit": "nM"}]}
{"smiles": "C[C@@H]1CN(c2nc(-c3ccncc3)cc3cnccc23)[C@@H](C)CN1", "note": "(racemic) [Example 23, Rac-1-((2S,5R)-2,5-Dimethyl-piperazin-1-yl)-3-pyridin-4-yl-[2,6]naphthyridine]", "values": [{"measurement": "θ/η: ratio of the IC50 value for PKCθ to the IC50 value for PKCη", "setting": "PKCθ", "value": 26}, {"measurement": "α/η: ratio of the IC50 value for PKCα to the IC50 value for PKCη", "setting": "PKCα", "value": 17}, {"measurement": "β/η: ratio of the IC50 value for PKC β to the IC50 value for PKCη", "setting": "PKCβ1", "value": 14}, {"measurement": "δ/η: ratio of the IC50 value for PKCδ to the IC50 value for PKCη", "setting": "PKCδ", "value": 15}, {"measurement": "ε/η: ratio of the IC50 value for PKCε to the IC50 value for PKCη", "setting": "PKCε", "value": 1}, {"measurement": "BM/MLR: ratio of IC50 values of BM assay and MLR assay", "setting": "[1]", "value": 24}]}
{"smiles": "CC(C)(N)COc1nc(-c2ccncc2)cc2cnccc12", "note": "[Example 81, 1,1-Dimethyl-2-(3-pyridin-4-yl-[2,6]naphthyridin-1-yloxy)-ethylamine]", "values": [{"measurement": "IC50", "setting": "PKCη", "value": 162, "unit": "nM"}]}
